Data on one compound can be found in article PMC6271218, “Pharmacokinetics, Tissue Distribution and Excretion of Verticinone from F. hupehensis in Rats” (Molecules, 2014).

As usually defined, the AUC(0-inf) is the area under the concentration-time curve extrapolated to infinity. A lower AUC(0-inf) goes with less exposure. What is called AUC(0-t) is exposure summed from dosing to a finite time, without extrapolation to infinity. Higher therefore signals high exposure.

The structures appear in SMILES notation. Like-named read-outs stand apart in the source and are kept apart here.

Data set [1] is described as follows: Plasma pharmacokinetics after i.v. administration. In kind it is in vivo, SD rats. The note with it: for AUC(0-inf) / AUC(0-t) / MRT last: SD, rat, plasma, iv; for AUC(0-inf) / AUC(0-t) / MRT last / Vz/F: i.v. 0.4 mg/kg; for MRT last: read-out: MRT0–t. On the procedure: Pharmacokinetic studies of verticinone after intravenous (i.v.) and intragastrical (i.g.) administration to rats were designed to determine pharmacokinetic parameters and absolute bioavailability. For i.g administration, verticinone was suspended in 0.5% carboxymethyl cellulose sodium (CMC-Na) to final concentrations of 0.2, 0.4 and 0.8 mg/mL. Verticinone was dissolved in 20% ethanol/80% water to final concentration of 0.08 mg/mL for i.v. administration. For the i.v. group, five male and five female rats received a single dose of 0.4 mg/kg. Blood samples (0.25 mL) were obtained at 0, 4, 15, 30, 45, 60, 120, 240, 360, 480, 600 and 720 min after injection. For the single- i.g. group, fifteen male and fifteen female rats were divided into three groups, and each group received a single oral dose of 1, 2 and 4 mg/kg of verticinone, respectively. In addition, another five male and five female rats received multiple oral doses of 4 mg/kg/day, given as 2 mg/kg doses twice a day (one dose in the morning and the second dose 12 h later) for 7 days, then a single oral dose of 2 mg/kg on the eighth day. Blood samples (0.25 mL) were obtained at 0, 5, 15, 30, 45, 60, 90, 120, 240, 360, 480 and 720 min for male rats and at 0, 5, 10, 20, 30, 45, 60, 120, 240, 360, 480 and 720 min for female rats after oral administration (the eighth day for multiple-dose group). Blood samples were then centrifuged at 4000 rpm for 10 min, and the plasma was collected. All plasma samples were frozen and stored at −20 °C until analysis. Verticinone was isolated from plasma by liquid-liquid extraction according to our previously reported procedure.
The quantification of verticinone was performed by a LC-MS method based on the previously reported method with slight modifications. The liquid chromatography system consisted of a model 2010 chromatograph (Shimadzu, Kyoto, Japan) equipped with a Shim-Pack VP-ODS C18 column (150 mm × 2.0 mm, 5 μm). A Shimadzu 2010 mass spectrometer (Q-array-Octapole-Quadrupole mass analyzer) equipped with an electrospray ionization interface was used for MS detection. The mobile phase consisted of (A) distilled water and (B) methanol, and the flow rate was 0.2 mL/min. Chromatography separation was achieved using a gradient elution program, as follows: 0.03→6.0 min, B% 15→85; 6.0→7.0 min, B% 85→85; 7.0→8.0 min, B% 85→15; 8.0–12.0 min, B% 15→15. The column and autosampler tray temperature were kept constant at 35 °C and 20 °C, respectively. For the determination of verticinone, the positive mode was selected, along with the conditions as follows.
CDL voltage […], probe voltage 4.5 kV, CDL temperature 250 °C, block temperature 200 °C, gas flow 1.5 L/min. Hupehenine was used as the internal standard (IS). Both verticinone and IS were detected using selected ion monitoring (SIM) at m/z 430.25 for verticinone and m/z 416.30 for hupehenine (IS), with a dwell time of 200 ms. Blank plasma, tissue homogenate, urine, feces homogenate and bile were used to prepare the corresponding calibration curves to avoid different matrix effects.
The pharmacokinetic parameters were calculated by the DAS 2.0 software (Chinese Pharmacological Association, Beijing, China) using a standard non-compartmental method. The Cmax and Tmax were determined from the observed data. The elimination rate constant (ke) was calculated by log-linear regression of verticinone concentrations during the terminal elimination phase and the half-life (t1/2) was calculated as 0.693/ke. The AUC0–t was calculated by the linear trapezoidal method. The AUC0–∞ was calculated as the sum of AUC0–t and the extrapolated part determined by Clast/ke. The total clearance (CL) was calculated as dose/AUC0–∞. The absolute bioavailability (F) was calculated by the following equation: F = [(AUCi.g./AUCi.v.) × (Dosei.v./Dosei.g.)] × 100%. The results were expressed as mean ± SD. Statistical analyses were performed using an unpaired Student’s t-test.

Data set [2] is described as follows: Plasma protein binding in vitro by ultrafiltration, human plasma. In kind it is in vitro ADME, humans. On the procedure: (§1) The ability of verticinone to bind to plasma protein was determined by the ultrafiltration method. A Centrifree Micropartition device (Millipore, Beverly, MA, USA) was used to separate unbound and bound verticinone. Verticinone of different concentrations were added into blank rat and human plasma to give final concentrations at 5, 30 and 100 ng/mL. The spiked plasma was incubated for 30 min at 37 °C and an aliquot (100 μL) was analyzed by previously described methods to determine the total concentration of verticinone. The ultrafiltrate was obtained by centrifuging at 14,000 rpm for 10 min. The concentration of unbound verticinone in filtrate was similarly determined by the previously described methods. The percentage of free fraction (p) of verticinone was calculated as follow: p = (concentration of verticinone in ultrafiltrate/concentration of verticinone in original spiked plasma sample) × 100%.

Data set [3] is described as follows: Plasma protein binding in vitro by ultrafiltration, rat plasma. The format is in vitro ADME, rats. On the procedure: as §1

Consider `C[C@H]1CC[C@@H]2N(C1)C[C@H]1[C@@H]3C[C@H]4[C@@H](CC(=O)[C@H]5C[C@@H](O)CC[C@@]54C)[C@@H]3CC[C@@H]1[C@]2(C)O` [verticinone, Verticinone], for which the AUC(0-inf) in data set [1] (female rats) was 98.9 ± 35.8 ng·h/mL; in data set [1] (male rats), 168 ± 23 ng·h/mL. The results for the AUC(0-t) in data set [1] (female rats) and in data set [1] (male rats) were 65.6 ± 7.03 ng·h/mL and 160 ± 20.2 ng·h/mL, respectively. The MRT last in data set [1] (female rats) was 2.04 ± 0.34 h; in data set [1] (male rats), 2.37 ± 0.14 h. The Vz/F is reported as 82.5 ± 70.3 L/kg in data set [1] (female rats) and 10.9 ± 1.56 L/kg in data set [1] (male rats). Besides, the “Exposure, fold higher in male rats than in female rats” value in data set [1] (i.v. dose 0.4 mg/kg) is listed as 2.4 fold. For the same compound, the fraction unbound at 30 min, 5 ng/mL was 0.074 in data set [2] (human plasma, 5 ng/mL, ultrafiltration, n = 4, read-out: Protein binding rates (%) (converted)) and 0.087 in data set [3] (rat plasma, 5 ng/mL, ultrafiltration, n = 4, read-out: Protein binding rates (%) (converted)). Moreover, the fraction unbound at 30 min, 30 ng/mL in data set [2] (human plasma, 30 ng/mL, ultrafiltration, n = 4, read-out: Protein binding rates (%) (converted)) is 0.105; in data set [3] (rat plasma, 30 ng/mL, ultrafiltration, n = 4, read-out: Protein binding rates (%)), 0.09. In addition, the fraction unbound at 30 min, 100 ng/mL is 0.054 in data set [2] (human plasma, 100 ng/mL, ultrafiltration, n = 4, read-out: Protein binding rates (%) (converted)) and 0.102 in data set [3] (rat plasma, 100 ng/mL, ultrafiltration, n = 4, read-out: Protein binding rates (%) (converted)). Besides, the fraction unbound at 30 min in data set [2] (human, plasma, humans, concentration range 5~100 ng/mL) is 0.054 to 0.105; in data set [3] (rat, plasma, rats, concentration range 5~100 ng/mL), 0.087 to 0.102.
